pKi: −log10 of the molar value.
How the values were obtained:
Mu-type opioid receptor = Mu-type opioid receptor (Rattus norvegicus, UniProt P33535)
[1] = target: T1, Alpha-2A adrenergic receptor (Bos taurus, UniProt Q28838)
T1 sequence (Q28838 whole entry): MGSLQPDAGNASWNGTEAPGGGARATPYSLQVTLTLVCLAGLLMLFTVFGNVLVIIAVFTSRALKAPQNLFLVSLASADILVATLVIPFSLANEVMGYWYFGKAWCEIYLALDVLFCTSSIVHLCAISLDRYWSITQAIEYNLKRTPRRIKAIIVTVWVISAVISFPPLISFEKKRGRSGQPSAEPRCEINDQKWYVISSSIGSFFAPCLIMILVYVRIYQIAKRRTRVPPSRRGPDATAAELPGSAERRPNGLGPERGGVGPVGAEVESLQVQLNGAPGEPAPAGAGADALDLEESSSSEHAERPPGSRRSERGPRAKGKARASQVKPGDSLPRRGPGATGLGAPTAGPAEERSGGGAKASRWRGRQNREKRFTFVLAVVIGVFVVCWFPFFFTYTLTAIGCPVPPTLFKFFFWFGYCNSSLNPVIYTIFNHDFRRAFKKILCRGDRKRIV

[2] = target: T2, Alpha-1A adrenergic receptor (Bos taurus, UniProt P18130)
T2 sequence (P18130 whole entry): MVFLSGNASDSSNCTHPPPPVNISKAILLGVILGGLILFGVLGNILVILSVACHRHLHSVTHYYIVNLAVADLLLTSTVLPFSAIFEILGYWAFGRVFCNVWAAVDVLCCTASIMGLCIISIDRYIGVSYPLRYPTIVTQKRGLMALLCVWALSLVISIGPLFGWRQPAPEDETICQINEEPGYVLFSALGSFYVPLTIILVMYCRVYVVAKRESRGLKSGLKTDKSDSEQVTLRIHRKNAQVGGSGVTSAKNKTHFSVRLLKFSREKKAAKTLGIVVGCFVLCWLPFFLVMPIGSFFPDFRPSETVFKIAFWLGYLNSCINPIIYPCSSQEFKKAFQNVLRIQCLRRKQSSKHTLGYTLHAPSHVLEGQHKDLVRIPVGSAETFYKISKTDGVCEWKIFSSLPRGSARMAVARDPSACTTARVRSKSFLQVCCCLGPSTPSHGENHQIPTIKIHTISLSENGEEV

[3] = target: 5-hydroxytryptamine receptor 2A (Rattus norvegicus, UniProt P14842)
5-hydroxytryptamine receptor 2A, sequence (P14842 whole entry): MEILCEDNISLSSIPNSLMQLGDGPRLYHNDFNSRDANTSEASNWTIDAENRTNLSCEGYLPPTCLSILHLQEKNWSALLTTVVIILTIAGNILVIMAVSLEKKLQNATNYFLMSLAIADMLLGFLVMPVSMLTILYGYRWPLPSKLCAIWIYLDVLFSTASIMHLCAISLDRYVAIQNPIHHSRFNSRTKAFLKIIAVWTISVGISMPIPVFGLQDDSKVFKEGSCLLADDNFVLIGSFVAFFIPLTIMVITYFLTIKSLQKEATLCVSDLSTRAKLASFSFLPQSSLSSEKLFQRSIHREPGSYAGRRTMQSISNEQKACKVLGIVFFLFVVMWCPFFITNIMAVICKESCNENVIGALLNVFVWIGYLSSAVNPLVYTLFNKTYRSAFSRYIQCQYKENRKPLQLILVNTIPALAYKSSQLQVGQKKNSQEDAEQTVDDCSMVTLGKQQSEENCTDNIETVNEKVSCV

[4] = target: 5-hydroxytryptamine 1D receptor (Bos taurus, UniProt Q8MI13)
5-hydroxytryptamine 1D receptor, sequence (Q8MI13 whole entry): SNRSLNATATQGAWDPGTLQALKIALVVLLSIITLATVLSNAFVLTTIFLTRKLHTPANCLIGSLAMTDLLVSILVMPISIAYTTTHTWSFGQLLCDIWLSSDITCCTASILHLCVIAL

[5] = target: T3, 5-hydroxytryptamine receptor 2C (Sus scrofa, UniProt G7ZKZ7)
T3 sequence (G7ZKZ7 whole entry): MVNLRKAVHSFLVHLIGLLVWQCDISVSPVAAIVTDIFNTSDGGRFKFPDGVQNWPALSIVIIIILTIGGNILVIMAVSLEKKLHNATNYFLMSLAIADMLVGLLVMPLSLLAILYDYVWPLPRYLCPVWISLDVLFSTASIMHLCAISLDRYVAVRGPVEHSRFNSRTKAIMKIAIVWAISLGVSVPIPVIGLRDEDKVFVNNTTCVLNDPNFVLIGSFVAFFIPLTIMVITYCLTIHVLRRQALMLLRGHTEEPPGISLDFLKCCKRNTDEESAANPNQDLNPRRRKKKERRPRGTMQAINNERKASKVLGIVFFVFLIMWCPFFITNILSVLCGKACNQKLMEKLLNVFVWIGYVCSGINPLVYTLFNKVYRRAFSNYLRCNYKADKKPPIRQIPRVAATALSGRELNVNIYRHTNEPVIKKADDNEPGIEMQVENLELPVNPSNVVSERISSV

Mu-type opioid receptor, sequence (P33535 whole entry): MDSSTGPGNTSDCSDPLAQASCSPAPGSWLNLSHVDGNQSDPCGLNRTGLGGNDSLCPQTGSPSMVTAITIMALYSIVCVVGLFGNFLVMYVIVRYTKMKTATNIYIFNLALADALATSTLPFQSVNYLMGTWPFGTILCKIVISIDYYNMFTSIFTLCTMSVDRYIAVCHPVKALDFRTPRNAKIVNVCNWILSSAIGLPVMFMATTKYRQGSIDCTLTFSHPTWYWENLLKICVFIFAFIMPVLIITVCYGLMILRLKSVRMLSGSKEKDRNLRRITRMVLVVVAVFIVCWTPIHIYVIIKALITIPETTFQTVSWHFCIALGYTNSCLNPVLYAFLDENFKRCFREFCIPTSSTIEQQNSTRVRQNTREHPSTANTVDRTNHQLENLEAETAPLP

pKi (Mu-type opioid receptor): < 5.00
pKi [1]: < 5.00
pKi [2]: 5.20
pKi [3]: < 5.00
pKi [4]: 5.60
pKi [5]: 5.40
SMILES: CCN(CC)CCOC(=O)c1cc(Cl)c(N)cc1OC [SDZ-205557]

Source: BindingDB's records for doi:10.1007/bf00176615 (Sandoz Pharma, 1992)
